For the first test, the system named is NCI-H596. Briefly: relative viability (nuclei count vs DMSO), 5 days (fraction); higher = more cells survive. Conditions: first compound 0.8 µM. A digest of the protocol:
(§1)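 Nuclei were stained with Hoechst during a one-step fixation (final 0.05% Triton X-100, 1% formaldehyde, 1 ug/ml Hoechst) carried out 5 days after dosing, then counted on 4× images. The cells, lung cancer lines in 1536-well plates, had been dosed by pin tool the day after seeding with one drug alone or a fixed anchor-drug dose plus five library-drug doses (not always all listed) in √10 steps. Relative viability is the nuclei count in treated wells divided by that in vehicle wells, and each value is the median of duplicate plates.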
In the case of `CCCCCCCCCCCC1=C(O)C(=O)C=C(O)C1=O` [Embelin] + Cc1nc(Nc2ncc(C(=O)Nc3c(C)cccc3Cl)s2)cc(N2CCN(CCO)CC2)n1 [Dasatinib] (partner 0.075 µM), the relative viability was determined as 0.739.
Take `CCCCCCCCCCCC1=C(O)C(=O)C=C(O)C1=O` [Embelin] + NC(=O)Nc1cc(-c2cccc(F)c2)sc1C(=O)N[C@H]1CCCNC1 [AZD7762] (partner 0.2 µM): the relative viability was 1.27.

The same test, now with this note: first compound 2.53 µM.
Consider `CCCCCCCCCCCC1=C(O)C(=O)C=C(O)C1=O` [Embelin] + N=C(N)NC(=N)NCCc1ccccc1 [Phenformin] (partner 250 µM), for which the relative viability came out at 1.03.
As to `CCCCCCCCCCCC1=C(O)C(=O)C=C(O)C1=O` [Embelin] + CCNC(=O)c1noc(-c2cc(C(C)C)c(O)cc2O)c1-c1ccc(CN2CCOCC2)cc1 [Luminespib] (partner 0.01 µM), the relative viability stood at 1.43.
Turning to `CCCCCCCCCCCC1=C(O)C(=O)C=C(O)C1=O` [Embelin] + Cc1nc(Nc2ncc(C(=O)Nc3c(C)cccc3Cl)s2)cc(N2CCN(CCO)CC2)n1 [Dasatinib] (partner 0.075 µM), the relative viability is 0.708.
For `CCCCCCCCCCCC1=C(O)C(=O)C=C(O)C1=O` [Embelin] + NC(=O)Nc1cc(-c2cccc(F)c2)sc1C(=O)N[C@H]1CCCNC1 [AZD7762] (partner 0.2 µM), the relative viability is 1.26.

Still in this test, the particulars now being: first compound 8 µM.
Turning to `CCCCCCCCCCCC1=C(O)C(=O)C=C(O)C1=O` [Embelin] + N=C(N)NC(=N)NCCc1ccccc1 [Phenformin] (partner 250 µM), the relative viability stood at 0.582.
`CCCCCCCCCCCC1=C(O)C(=O)C=C(O)C1=O` [Embelin] + CCNC(=O)c1noc(-c2cc(C(C)C)c(O)cc2O)c1-c1ccc(CN2CCOCC2)cc1 [Luminespib] (partner 0.01 µM) had a relative viability of 0.904.
On the same count and under the same terms, the result for `CCCCCCCCCCCC1=C(O)C(=O)C=C(O)C1=O` [Embelin] + Cc1nc(Nc2ncc(C(=O)Nc3c(C)cccc3Cl)s2)cc(N2CCN(CCO)CC2)n1 [Dasatinib] (partner 0.075 µM) reads 0.457; that for `CCCCCCCCCCCC1=C(O)C(=O)C=C(O)C1=O` [Embelin] + NC(=O)Nc1cc(-c2cccc(F)c2)sc1C(=O)N[C@H]1CCCNC1 [AZD7762] (partner 0.2 µM), 1.01.

In a further test the test system is NCI-H2087. The test is described as above. The following applies: first compound 0.08 µM. The method, boiled down:
as §1
Compound `CCCCCCCCCCCC1=C(O)C(=O)C=C(O)C1=O` [Embelin] + N=C(N)NC(=N)NCCc1ccccc1 [Phenformin] (partner 250 µM) came in with a relative viability of 0.486.
Compound `CCCCCCCCCCCC1=C(O)C(=O)C=C(O)C1=O` [Embelin] + CCNC(=O)c1noc(-c2cc(C(C)C)c(O)cc2O)c1-c1ccc(CN2CCOCC2)cc1 [Luminespib] (partner 0.01 µM) returned a relative viability of 0.162.
With `CCCCCCCCCCCC1=C(O)C(=O)C=C(O)C1=O` [Embelin] + Cc1nc(Nc2ncc(C(=O)Nc3c(C)cccc3Cl)s2)cc(N2CCN(CCO)CC2)n1 [Dasatinib] (partner 0.075 µM), the relative viability turned out to be 0.877.
The compound `CCCCCCCCCCCC1=C(O)C(=O)C=C(O)C1=O` [Embelin] + NC(=O)Nc1cc(-c2cccc(F)c2)sc1C(=O)N[C@H]1CCCNC1 [AZD7762] (partner 0.2 µM) returned a relative viability of 1.34.
Consider `CCCCCCCCCCCC1=C(O)C(=O)C=C(O)C1=O` [Embelin] + CC(=O)c1c(C)c2cnc(Nc3ccc(N4CCNCC4)cn3)nc2n(C2CCCC2)c1=O [Palbociclib] (partner 0.5 µM), for which the relative viability was 0.236.

The same test, now with this note: first compound 0.8 µM.
Compound `CCCCCCCCCCCC1=C(O)C(=O)C=C(O)C1=O` [Embelin] + N=C(N)NC(=N)NCCc1ccccc1 [Phenformin] (partner 250 µM) displayed a relative viability of 0.459.
The compound `CCCCCCCCCCCC1=C(O)C(=O)C=C(O)C1=O` [Embelin] + CCNC(=O)c1noc(-c2cc(C(C)C)c(O)cc2O)c1-c1ccc(CN2CCOCC2)cc1 [Luminespib] (partner 0.01 µM) gave a relative viability of 0.186.
`CCCCCCCCCCCC1=C(O)C(=O)C=C(O)C1=O` [Embelin] + Cc1nc(Nc2ncc(C(=O)Nc3c(C)cccc3Cl)s2)cc(N2CCN(CCO)CC2)n1 [Dasatinib] (partner 0.075 µM) gave a relative viability of 1.19.
Consider `CCCCCCCCCCCC1=C(O)C(=O)C=C(O)C1=O` [Embelin] + NC(=O)Nc1cc(-c2cccc(F)c2)sc1C(=O)N[C@H]1CCCNC1 [AZD7762] (partner 0.2 µM), for which the relative viability amounted to 1.37.
`CCCCCCCCCCCC1=C(O)C(=O)C=C(O)C1=O` [Embelin] + CC(=O)c1c(C)c2cnc(Nc3ccc(N4CCNCC4)cn3)nc2n(C2CCCC2)c1=O [Palbociclib] (partner 0.5 µM): the relative viability stood at 0.227.

The same test, now with this note: first compound 2.53 µM.
As for `CCCCCCCCCCCC1=C(O)C(=O)C=C(O)C1=O` [Embelin] + N=C(N)NC(=N)NCCc1ccccc1 [Phenformin] (partner 250 µM), the relative viability worked out at 0.426.
In turn, `CCCCCCCCCCCC1=C(O)C(=O)C=C(O)C1=O` [Embelin] + CCNC(=O)c1noc(-c2cc(C(C)C)c(O)cc2O)c1-c1ccc(CN2CCOCC2)cc1 [Luminespib] (partner 0.01 µM) came in with a relative viability of 0.141.
`CCCCCCCCCCCC1=C(O)C(=O)C=C(O)C1=O` [Embelin] + Cc1nc(Nc2ncc(C(=O)Nc3c(C)cccc3Cl)s2)cc(N2CCN(CCO)CC2)n1 [Dasatinib] (partner 0.075 µM) registered a relative viability of 1.06.
On the same count and under the same terms, in the case of `CCCCCCCCCCCC1=C(O)C(=O)C=C(O)C1=O` [Embelin] + NC(=O)Nc1cc(-c2cccc(F)c2)sc1C(=O)N[C@H]1CCCNC1 [AZD7762] (partner 0.2 µM) it was 1.2.
As for `CCCCCCCCCCCC1=C(O)C(=O)C=C(O)C1=O` [Embelin] + CC(=O)c1c(C)c2cnc(Nc3ccc(N4CCNCC4)cn3)nc2n(C2CCCC2)c1=O [Palbociclib] (partner 0.5 µM), the relative viability stood at 0.266.

The same test, now with this note: first compound 8 µM.
Regarding `CCCCCCCCCCCC1=C(O)C(=O)C=C(O)C1=O` [Embelin] + N=C(N)NC(=N)NCCc1ccccc1 [Phenformin] (partner 250 µM), the relative viability stood at 0.479.
In turn, `CCCCCCCCCCCC1=C(O)C(=O)C=C(O)C1=O` [Embelin] + CCNC(=O)c1noc(-c2cc(C(C)C)c(O)cc2O)c1-c1ccc(CN2CCOCC2)cc1 [Luminespib] (partner 0.01 µM) displayed a relative viability of 0.172.

Source of the values: the supplement of paper PMC10307832.
